The source of these data is ChEMBL document CHEMBL4619707, “Synthesis and biological investigation of triazolopyridinone derivatives as potential multireceptor atypical antipsychotics” (Bioorg Med Chem Lett, 2020).

Data set [1] has as its target T1, 5-hydroxytryptamine receptor 1A (Homo sapiens, UniProt P08908).
T1 sequence (P08908 whole entry): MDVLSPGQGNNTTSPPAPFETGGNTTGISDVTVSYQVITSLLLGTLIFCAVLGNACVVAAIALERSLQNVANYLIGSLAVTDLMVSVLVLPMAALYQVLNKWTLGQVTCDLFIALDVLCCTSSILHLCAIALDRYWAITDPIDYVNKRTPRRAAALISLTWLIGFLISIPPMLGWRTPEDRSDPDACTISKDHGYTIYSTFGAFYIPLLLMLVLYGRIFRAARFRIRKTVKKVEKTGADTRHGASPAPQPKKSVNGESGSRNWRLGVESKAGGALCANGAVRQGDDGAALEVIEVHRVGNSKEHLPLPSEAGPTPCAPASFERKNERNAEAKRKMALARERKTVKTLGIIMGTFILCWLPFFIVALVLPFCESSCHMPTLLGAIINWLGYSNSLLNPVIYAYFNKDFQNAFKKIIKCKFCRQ
Kind of data set: Agonist activity at 5HT1A receptor (unknown origin) by calcium-dye based FLIPR assay. It counts as functional.

In data set [2] the target is 5-hydroxytryptamine receptor 2A (Homo sapiens, UniProt P28223). Nature of the data set: Antagonist activity at 5HT2A receptor (unknown origin) by HTRF cAMP assay. The data set is classed as functional.
Sequence of 5-hydroxytryptamine receptor 2A (P28223 whole entry): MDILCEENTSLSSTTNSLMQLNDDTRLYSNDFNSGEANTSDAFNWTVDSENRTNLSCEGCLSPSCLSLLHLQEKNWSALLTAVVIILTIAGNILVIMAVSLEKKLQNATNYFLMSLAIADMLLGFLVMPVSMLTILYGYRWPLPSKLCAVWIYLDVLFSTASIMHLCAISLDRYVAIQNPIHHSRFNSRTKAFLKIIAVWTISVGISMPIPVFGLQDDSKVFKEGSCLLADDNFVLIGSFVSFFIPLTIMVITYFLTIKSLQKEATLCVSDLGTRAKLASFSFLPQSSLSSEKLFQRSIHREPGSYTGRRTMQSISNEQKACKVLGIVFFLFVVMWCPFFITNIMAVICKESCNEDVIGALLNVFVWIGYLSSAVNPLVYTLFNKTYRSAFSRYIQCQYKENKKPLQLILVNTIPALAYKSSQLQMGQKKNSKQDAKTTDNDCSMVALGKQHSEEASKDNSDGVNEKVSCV
Data set [3] relates to Mus musculus. Kind of data set: Antipsychotic activity in ICR mouse assessed as inhibition of quipazine-induced head-twitch response at 0.3 mg/kg, po administered with compound after quipazine administration measured for 15 mins. The data set is classed as functional, organism-based.
In data set [4] the target is Voltage-gated inwardly rectifying potassium channel KCNH2 (Homo sapiens, UniProt Q12809). Nature of the data set: Inhibition of human ERG.
Sequence of Voltage-gated inwardly rectifying potassium channel KCNH2 (Q12809 whole entry): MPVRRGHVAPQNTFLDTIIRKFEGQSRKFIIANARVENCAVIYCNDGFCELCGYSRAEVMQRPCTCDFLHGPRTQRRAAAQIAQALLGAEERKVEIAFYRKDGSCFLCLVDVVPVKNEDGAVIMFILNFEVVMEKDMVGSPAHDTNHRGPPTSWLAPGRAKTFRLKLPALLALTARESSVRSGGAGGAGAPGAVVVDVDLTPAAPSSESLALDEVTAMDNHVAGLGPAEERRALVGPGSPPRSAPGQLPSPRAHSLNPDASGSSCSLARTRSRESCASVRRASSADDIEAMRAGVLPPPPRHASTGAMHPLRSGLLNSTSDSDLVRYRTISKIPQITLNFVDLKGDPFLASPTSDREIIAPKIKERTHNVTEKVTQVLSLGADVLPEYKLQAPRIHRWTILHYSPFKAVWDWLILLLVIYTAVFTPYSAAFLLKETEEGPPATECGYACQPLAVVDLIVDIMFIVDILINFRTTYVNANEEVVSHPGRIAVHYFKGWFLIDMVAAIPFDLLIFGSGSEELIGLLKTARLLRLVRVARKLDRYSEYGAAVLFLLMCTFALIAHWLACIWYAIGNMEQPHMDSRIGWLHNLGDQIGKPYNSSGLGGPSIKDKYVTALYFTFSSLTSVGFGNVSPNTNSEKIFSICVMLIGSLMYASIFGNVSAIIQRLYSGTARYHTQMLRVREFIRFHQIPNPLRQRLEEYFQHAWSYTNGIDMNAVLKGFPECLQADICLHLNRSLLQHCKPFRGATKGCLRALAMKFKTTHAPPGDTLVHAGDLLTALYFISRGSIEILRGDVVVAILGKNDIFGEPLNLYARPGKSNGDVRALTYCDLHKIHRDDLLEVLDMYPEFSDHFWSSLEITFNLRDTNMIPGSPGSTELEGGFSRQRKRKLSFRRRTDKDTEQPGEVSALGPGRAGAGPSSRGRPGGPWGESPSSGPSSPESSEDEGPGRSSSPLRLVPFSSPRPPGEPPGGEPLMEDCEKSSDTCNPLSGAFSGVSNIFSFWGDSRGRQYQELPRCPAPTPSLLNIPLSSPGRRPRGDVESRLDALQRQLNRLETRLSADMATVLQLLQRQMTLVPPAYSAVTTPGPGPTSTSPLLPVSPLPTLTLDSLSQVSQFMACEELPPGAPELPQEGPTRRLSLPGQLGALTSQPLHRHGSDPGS
The target in data set [5] is Muscarinic acetylcholine receptor M3 (Homo sapiens, UniProt P20309). Nature of the data set: Antagonist activity at muscarinic M3 receptor (unknown origin). The data set is classed as ADME.
Sequence of Muscarinic acetylcholine receptor M3 (P20309 whole entry): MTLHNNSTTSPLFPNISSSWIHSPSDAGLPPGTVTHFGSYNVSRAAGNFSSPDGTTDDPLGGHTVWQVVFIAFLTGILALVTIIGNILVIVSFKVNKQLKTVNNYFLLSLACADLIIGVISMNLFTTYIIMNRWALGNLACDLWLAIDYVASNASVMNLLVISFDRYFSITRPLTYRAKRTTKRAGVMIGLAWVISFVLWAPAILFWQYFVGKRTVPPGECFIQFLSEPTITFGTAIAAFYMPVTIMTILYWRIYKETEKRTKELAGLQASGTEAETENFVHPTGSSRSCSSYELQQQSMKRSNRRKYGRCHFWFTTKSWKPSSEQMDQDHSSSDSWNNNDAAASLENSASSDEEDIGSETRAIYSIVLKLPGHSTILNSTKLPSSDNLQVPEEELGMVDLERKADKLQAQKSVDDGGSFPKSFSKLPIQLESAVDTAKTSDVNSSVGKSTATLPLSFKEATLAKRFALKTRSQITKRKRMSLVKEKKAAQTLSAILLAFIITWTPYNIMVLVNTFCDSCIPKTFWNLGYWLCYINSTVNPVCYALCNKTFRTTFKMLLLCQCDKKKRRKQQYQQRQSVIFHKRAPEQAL
Data set [6] concerns the target T2, 5-hydroxytryptamine receptor 2C (Homo sapiens, UniProt P28335).
T2 sequence (P28335 whole entry): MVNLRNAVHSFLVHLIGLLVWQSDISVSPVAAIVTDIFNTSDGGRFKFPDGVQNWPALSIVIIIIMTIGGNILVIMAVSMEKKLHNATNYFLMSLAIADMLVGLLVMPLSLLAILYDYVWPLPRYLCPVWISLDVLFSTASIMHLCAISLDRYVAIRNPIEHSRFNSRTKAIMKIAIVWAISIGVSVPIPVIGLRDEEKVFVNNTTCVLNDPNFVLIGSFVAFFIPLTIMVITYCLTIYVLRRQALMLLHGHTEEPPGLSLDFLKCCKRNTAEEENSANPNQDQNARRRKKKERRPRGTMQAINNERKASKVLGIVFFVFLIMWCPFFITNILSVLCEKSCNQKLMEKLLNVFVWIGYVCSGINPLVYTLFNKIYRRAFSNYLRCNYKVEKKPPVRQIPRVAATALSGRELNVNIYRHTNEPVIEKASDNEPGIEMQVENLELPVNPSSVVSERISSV
Nature of the data set: Antagonist activity at 5-HT2C receptor (unknown origin).

In data set [7] the target is Sodium-dependent serotonin transporter (Homo sapiens) (UniProt P31645). The settings on record: 400 nM.
Sequence of Sodium-dependent serotonin transporter (Homo sapiens) (P31645 whole entry, looked up): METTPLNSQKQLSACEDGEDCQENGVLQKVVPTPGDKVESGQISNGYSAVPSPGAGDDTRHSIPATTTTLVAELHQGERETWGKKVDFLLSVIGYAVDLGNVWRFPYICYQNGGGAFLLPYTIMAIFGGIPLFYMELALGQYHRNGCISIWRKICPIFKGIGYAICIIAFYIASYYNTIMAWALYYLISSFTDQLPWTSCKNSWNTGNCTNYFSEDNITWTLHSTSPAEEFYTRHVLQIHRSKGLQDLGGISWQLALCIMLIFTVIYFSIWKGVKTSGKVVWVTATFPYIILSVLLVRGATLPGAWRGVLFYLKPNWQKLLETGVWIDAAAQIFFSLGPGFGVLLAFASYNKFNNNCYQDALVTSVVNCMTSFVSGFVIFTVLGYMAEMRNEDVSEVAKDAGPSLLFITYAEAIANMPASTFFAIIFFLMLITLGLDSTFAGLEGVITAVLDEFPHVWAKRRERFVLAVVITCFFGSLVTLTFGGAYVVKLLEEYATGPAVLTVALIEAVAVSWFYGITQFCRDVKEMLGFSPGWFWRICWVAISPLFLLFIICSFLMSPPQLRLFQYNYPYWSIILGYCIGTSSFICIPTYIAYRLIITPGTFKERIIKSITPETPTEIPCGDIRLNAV
Description: Antagonist activity at SERT receptor (unknown origin) at 400 nM by fluorescence based assay relative to control
Data set [8] deals with Mus musculus. Nature of the data set: Antipsychotic activity in po dosed ICR mouse assessed as inhibition of quipazine-induced head-twitch response administered with compound after quipazine administration measured for 15 mins. It counts as functional, organism-based.
The test system of a further data set is HEK293. Nature of the data set: Cytotoxicity against human HEK293 cells assessed as reduction in cell viability. The data set is classed as cell-based.
Data set [9] in a line: Toxicity in mouse assessed as sedation by measuring spontaneous locomotor activity at 0.3 mg/kg, po. It counts as organism-based. To be noted: in vivo.
Data set [10] is described as follows: Toxicity in mouse assessed as sedation by measuring spontaneous locomotor activity at 3 to 10 mg/kg, po. The data set is classed as organism-based. To be noted: in vivo.
Data set [11] has as its system Mus musculus. Nature of the data set: Antipsychotic activity in po dosed mouse assessed as inhibition of phencyclidine-induced hyperlocomotion administered with compound after phencyclidine challenge measured for 75 mins. It counts as functional, organism-based.
A further data set concerns the target Histamine H1 receptor (Homo sapiens, UniProt P35367). Kind of data set: Antagonist activity at H1 receptor (unknown origin). The data set is classed as ADME.
In data set [12] the target is T3, D(2) dopamine receptor (Homo sapiens, UniProt P14416). Kind of data set: Agonist activity at D2 receptor (unknown origin).
T3 sequence (P14416 whole entry): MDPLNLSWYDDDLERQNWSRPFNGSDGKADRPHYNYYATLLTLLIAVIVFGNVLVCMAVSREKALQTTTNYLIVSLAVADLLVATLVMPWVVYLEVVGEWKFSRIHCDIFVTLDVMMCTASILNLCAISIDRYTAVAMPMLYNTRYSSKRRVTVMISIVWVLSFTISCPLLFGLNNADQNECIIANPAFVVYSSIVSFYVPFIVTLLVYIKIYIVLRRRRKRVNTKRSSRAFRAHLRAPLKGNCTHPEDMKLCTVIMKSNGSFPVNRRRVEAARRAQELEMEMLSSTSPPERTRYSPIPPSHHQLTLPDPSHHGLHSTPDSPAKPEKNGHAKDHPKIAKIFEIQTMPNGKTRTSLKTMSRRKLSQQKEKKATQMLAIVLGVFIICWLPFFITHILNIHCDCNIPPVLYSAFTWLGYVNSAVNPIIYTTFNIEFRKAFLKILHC
Data set [13] has as its target T3, D(2) dopamine receptor. Nature of the data set: Agonist activity at D2 receptor (unknown origin) relative to 10 uM dopamine.
Data set [14] can be described thus: Cytotoxicity against human Chang cells assessed as reduction in cell viability. It counts as cell-based.

Values after ≈ are worked out from the molar mass of the structure shown. Active and inactive are the calls of the source. The rule behind the calls is not given here. Bounds are passed on as bounds.

Sequence of Histamine H1 receptor (P35367 whole entry): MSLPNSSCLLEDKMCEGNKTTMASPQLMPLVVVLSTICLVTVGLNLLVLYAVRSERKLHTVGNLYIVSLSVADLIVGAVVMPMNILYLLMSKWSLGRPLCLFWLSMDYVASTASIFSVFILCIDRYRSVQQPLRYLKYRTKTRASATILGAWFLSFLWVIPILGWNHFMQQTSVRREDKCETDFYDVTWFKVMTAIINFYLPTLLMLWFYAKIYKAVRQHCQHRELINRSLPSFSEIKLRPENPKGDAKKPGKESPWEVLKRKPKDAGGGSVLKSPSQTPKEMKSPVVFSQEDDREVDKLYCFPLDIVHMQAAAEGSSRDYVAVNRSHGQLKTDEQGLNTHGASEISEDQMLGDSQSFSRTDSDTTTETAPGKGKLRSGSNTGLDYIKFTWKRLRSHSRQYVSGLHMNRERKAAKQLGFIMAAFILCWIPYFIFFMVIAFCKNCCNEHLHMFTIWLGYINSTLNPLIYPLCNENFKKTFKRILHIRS

Take `O=c1n(CCCCN2CCN(c3cccc4sc(F)cc34)CC2)nc2c(F)cccn12`: the EC50 in data set [1] turned out to be 1.53 nM. This compound displayed a half-maximal inhibitory concentration (IC50) in data set [2] of 1070 nM.
In the same order, the values of `N#Cc1cccn2c(=O)n(CCCCN3CCN(c4cccc5sccc45)CC3)nc12` are 1.4 nM and 155 nM.
Regarding `O=c1n(CCCCN2CCN(c3cccc4sccc34)CC2)nc2c(F)cccn12`, the EC50 in [1] turned out to be 1.8 nM. The IC50 was 35.5 nM in [2], 2200 nM in [4], over 10000 nM in data set [5] and 2100 nM in data set [6]. Also, the inhibition result in the data set with Mus musculus [3] was “Active”.
Take `O=C1CCc2ccc(OCCCCN3CCN(c4cccc(Cl)c4Cl)CC3)cc2N1`: in the data set with Mus musculus [3], the inhibition result is “Active”. Moreover, the inhibition in data set [7] amounted to 21%.
With `O=c1n(CCCCN2CCN(c3cccc4scnc34)CC2)nc2c(F)cccn12`, in data set [1], the EC50 came out at 0.1 nM. Further, it took 77.8 nM to reach half-maximal inhibition in data set [2] (IC50).
`O=c1n(CCCCN2CCN(c3cccc4sccc34)CC2)nc2ccc(Cl)cn12`: the concentration giving a half-maximal response (EC50) in data set [1] amounted to 9.5 nM. The same compound showed an IC50 in data set [2] of 144 nM.
`O=c1n(CCCCN2CCN(c3cccc4sccc34)CC2)nc2ccc(F)cn12`: the EC50 in [1] was determined as 0.1 nM. The compound also gave an IC50 in [2] of 46.3 nM.
In the same order, the values of `O=c1n(CCCCN2CCN(c3cccc4sccc34)CC2)nc2c(Cl)cc(Cl)cn12` are 0.1 nM and 652 nM.
Consider `O=c1n(CCCCN2CCN(c3cccc4sccc34)CC2)nc2ccccn12`, for which the inhibition entry in the data set on Mus musculus [8] and with Mus musculus [11] was “Dose-dependent effect” throughout. The EC50 in [1] fell in the range of 1.7 to 1.8 nM. Besides, the IC50 in data set [2] is 34.2 nM; in the data set with HEK293, 108 µg/mL (≈ 265 µM); in data set [4], 3010 nM; in [5], over 10000 nM; in [6], over 10000 nM; on Histamine H1 receptor, 88.5 nM. Besides, the Activity entry in data set [9] is listed as “Non-Toxic”; in [10] it was “Toxic”. Moreover, the inhibition entry in the data set on Mus musculus [3] was “Active”.
In the case of `Cc1nc2n(c(=O)c1CCN1CCC(c3noc4cc(F)ccc34)CC1)CCCC2` [RISPERIDONE], on D(2) dopamine receptor [12], the EC50 entry is reported as “Not Active”. On D(2) dopamine receptor [13], this compound displayed an Emax of under 20%. The values for the IC50 (in data set [14]; in the data set on HEK293) were 239 µg/mL (≈ 582 µM) and over 600 µg/mL, respectively.
`O=c1n(CCCCN2CCN(c3cccc4sccc34)CC2)nc2c(Cl)cccn12`: the EC50 in data set [1] turned out to be 12.1 nM. Also, the IC50 in [2] is 368 nM.
In the case of `COc1cccn2c(=O)n(CCCCN3CCN(c4cccc5sccc45)CC3)nc12`, the EC50 in [1] is 2.2 nM. Also, in [2], the midpoint of inhibition, the IC50, lay at 85.2 nM.
In the same order, the values of `N#Cc1cccc2nn(CCCCN3CCN(c4cccc5sccc45)CC3)c(=O)n12` are 20.2 nM and 104 nM.
`O=c1n(CCCN2CCN(c3cccc(Cl)c3)CC2)nc2ccccn12` [TRAZODONE]: the half-maximal effective concentration (EC50) result at D(2) dopamine receptor [12] was “Not Active”. At D(2) dopamine receptor [13], this compound showed an Emax of under 20%.
Consider `O=c1ccc2ccc(OCCCCN3CCN(c4cccc5sccc45)CC3)cc2[nH]1` [BREXPIPRAZOLE], for which the EC50 at D(2) dopamine receptor [12] (read-out: EC50) was determined as 6.3 nM. The same compound yielded an Emax on D(2) dopamine receptor [13] of 29%. The IC50 worked out at 44.2 µg/mL (≈ 102 µM) in data set [14] and 19.1 µg/mL (≈ 44.1 µM) in the data set with HEK293.
Consider `O=c1n(CCCCN2CCN(c3cccc4sccc34)CC2)nc2c(Br)cccn12`, for which the EC50 in data set [1] amounted to 7 nM. The same compound had an IC50 in [2] of 131 nM.
As for `O=c1n(CCCCN2CCC(c3cc(F)cc4oncc34)CC2)nc2ccccn12`, the EC50 in data set [1] is over 10000 nM. The compound also showed a half-maximal inhibitory concentration (IC50) in data set [2] of 15.2 nM.
Take `O=c1n(CCCCN2CCN(c3cccc4sccc34)CC2)nc2c(F)cc(F)cn12`: in data set [1], the concentration giving a half-maximal response (EC50) is 1.2 nM. This compound returned an IC50 in data set [2] of 27 nM.
Turning to `COc1cccc2nn(CCCCN3CCN(c4cccc5sccc45)CC3)c(=O)n12`, in [1], the EC50 was found to be 2 nM. This compound also returned an IC50 in [2] of 13 nM. In the data set with Mus musculus [3], the inhibition result is “Active”.
With `O=c1n(CCCCN2CCN(c3cccc4scnc34)CC2)nc2ccccn12`, in data set [1], the concentration giving a half-maximal response (EC50) worked out at 2.8 nM. Further, in [2], the IC50 came out at 2730 nM.
In the case of `N#Cc1ccc2nn(CCCCN3CCN(c4cccc5sccc45)CC3)c(=O)n2c1`, the EC50 in data set [1] was found to be 9.7 nM. For the same compound, the IC50 was 11 nM in data set [2]; 1050 nM in data set [4]; over 10000 nM in data set [5]; 3290 nM in [6]; 76.6 nM at Histamine H1 receptor.
For `N#Cc1ccn2c(=O)n(CCCCN3CCN(c4cccc5sccc45)CC3)nc2c1`, the EC50 in [1] is 5.9 nM. In data set [2], this compound returned an IC50 of 726 nM.
